Patent US7169815B2, “3-methoxybenzyl thiourea derivatives and improved lipid compositions containing same” (The United States of America as represented by the …, priority 2000, dated 2007)

Legend:
[1] = UVB and UVA molar absorptivities in chloroform; format: physicochemical; conditions: 0.01 mg/ml in chloroform
Procedure: The compounds synthesized in Example 3 were tested to determine their ability to absorb […] UVA light. UV spectra of quantitatively weighed and diluted samples (0.01 mg/ml) in chloroform were scanned from 244–450 nm at 240 nm/min on a Beckman DU 640 spectrophotometer (Beckman Coulter, Inc., Fullerton, Calif.). Amax in the 280–320 nm range was determined and converted to molar absorptivity for the UVB region, and Amax in the 320–400 nm range was determined and converted to molar absorptivity for the UVA region.

[2] = Oxidative Stability by Rotating Pressure Vessel (RBOT) of refined meadowfoam seed oil plus thiourea compounds
Text: Another presently preferred method of determining oxidative stability of lipids and oils employs the Oxidative Stability by Rotating Pressure Vessel (RBOT) test. In this test, oxidative stability, determined according to the ASTM D2272-98 test method (ASTM, 2001, “Standard Test Method for Oxidation Stability of Steam Turbine Oils by Rotating Pressure Vessel,” in Book of Standards, Vol. 05.01., American Society for Testing and Materials, West Conshohocken, Pa.), measures the time for oxygen pressure to decrease in a closed stainless steel vessel containing a lipid or oil when heated with a copper coil catalyst. Oxygen taken up by the lipid or oil during the reaction is an indication of oil degradation.
In these experiments, Oxidative Stability by Rotating Pressure Vessel (RBOT) tests were performed with different 3-methoxybenzyl thiourea compounds synthesized in Example 3 that were mixed in different quantities with different mono- and polyunsaturated vegetable oils. Hexane was used to clean and store the copper coils, but all other aspects of the Oxidative Stability by Rotating Pressure Vessel (RBOT) test were the same as in the standard ASTM D2272–98 test method (ASTM, 2001, “Standard Test Method for Oxidation Stability of Steam Turbine Oils by Rotating Pressure Vessel,” in Book of Standards, Vol. 05.01., American Society for Testing and Materials, West Conshohocken, Pa.).

[3] = OSI test of jojoba oil mixed with additive; conditions: 110° C.
Text: (§1) A presently preferred method of determining oxidative stability of lipids and oils employs the Oxidative Stability Index (OSI), which determines the oxidative stability of an oil by passing air through a sample under stringent temperature control. (Firestone, Oxidative Stability Index (OSI): Official Methods of Recommended Practices of the American Oil Chemists' Society (AOCS), 4th Ed. American Oil Chemists Society, Champaign, Ill., AOCS Official Method Cd 12b-92, 1993.) In this method, a stream of air is passed through the oil sample, which aids in the rapid degradation of the triglyceride into volatile organic acids. The air stream flushes the volatile acids from the oil into a conductivity cell containing water where the acids are solubilized. These acids, once dissolved in the water solution, disassociate into ions, thus changing the conductivity of the water. Therefore, a continuous measure of the conductivity of the cell by computer will indicate when a rapid rise in the conductivity occurs that corresponds to the induction point, oxidative failure of the sample. The time to the induction point is the OSI time. […] Saturated fatty acid methyl ester (FAME) standards commercially available from Alltech Associates (Deerfield, Ill.) may be used to calibrate the OSI determinations.
(§2) OSI determinations may be performed on an oxidative stability instrument manufactured by Omnion (Rockland, Mass.) using the AOCS method described in the above-disclosed Firestone reference. Lipid or oil samples may be run at 110° C. and FAMEs may be tested at 90° C., with air flow set at 35 kPa with a resulting velocity of about 140 ml/min. A presently preferred method for determining OSI values is described by T. A. Isbell et al., “Oxidative Stability Index of Vegetable Oils in Binary Mixtures with Meadowfoam Oil,” Industrial Crops and Products 9, 115–123 (1999).
Unless otherwise stated, Oxidative Stability Index (OSI) values were determined on 5.00 ±0.05 g lipid or oil samples in triplicate according to AOCS Official Method Cd 12b-92 (AOCS, 1993) at 90° C., 110° C. and/or 130° C. on an oxidative stability instrument manufactured by Omnion (Rockland, Mass.). Details of the procedure have been published by Isbell et al., “Oxidative Stability Index of Vegetable Oils in Binary Mixtures with Meadowfoam Oil,” Ind. Crops Prod. 9, 115–123 (1999). When compounds of the present invention were added to the lipid or oil sample being tested, the compounds (0.1% to 1.0% by weight) were added to the test lipid or oil (20 g) and dissolved or dispersed at room temperature before triplicate 5.00 g samples of lipid or oil with an added compound of the invention were weighed into the OSI test tube. […]

[4] = Oxidative Stability Index (OSI) of refined meadowfoam seed oil plus additives; conditions: 130° C.; for increase in the OSI time: refined meadowfoam seed oil, versus oil with no additives
Text: as §1, §2
Unless otherwise stated, Oxidative Stability Index (OSI) values were determined on 5.00 ±0.05 g lipid or oil samples in triplicate according to AOCS Official Method Cd 12b-92 (AOCS, 1993) at 90° C., 110° C. and/or 130° C. on an oxidative stability instrument manufactured by Omnion (Rockland, Mass.). Details of the procedure have been published by Isbell et al., “Oxidative Stability Index of Vegetable Oils in Binary Mixtures with Meadowfoam Oil,” Ind. Crops Prod. 9, 115–123 (1999). When compounds of the present invention were added to the lipid or oil sample being tested, the compounds (0.1% to 1.0% by weight) were added to the test lipid or oil (20 g) and dissolved or dispersed at room temperature before triplicate 5.00 g samples of lipid or oil with an added compound of the invention were weighed into the OSI test tube.
The 1,3-di(3-methoxybenzyl) thiourea prepared in Example 3 was mixed at 0.1%, 0.5% or 1.0% with refined meadowfoam seed oil (Lot #CW-4551, The Fanning Corp) and the oxidative stability of the mixtures was compared to that of refined meadowfoam seed oil at 130° C. The OSI times were 49.8 h, 159 h and 172 h, respectively, for the mixtures containing the thiourea compared to an OSI time of 14.9 h for this lot of refined meadowfoam seed oil with no additives at 130° C.
Thus, 1,3-bis(2-methoxyphenyl)-2-thiourea (Aldrich Chem Co.) added at 0. […] Likewise, 1,3-bis(3-methoxyphenyl)-2-thiourea at 0. 1% added to refined meadowfoam oil gave an OSI time of 27.0 h, an […] lower value than for the 1,3-di-(3-methoxybenzyl) thiourea produced in Example 3.

COc1cccc(CNC(=S)NCc2cccc(OC)c2)c1 [1,3-di(3-methoxybenzyl) thiourea]
UVBMAX Molar Absorptivity ([1]; Amax in 280–320 nm): 5367
UVAMAX Molar Absorptivity ([1]; Amax in 320–400 nm): 0.0
Oxidative Stability (RBOT) ([2]; Refined Meadowfoam Seed Oil plus 0.05% compound): 33 min
Oxidative Stability (RBOT) ([2]; Refined Meadowfoam Seed Oil plus 0.1% compound): 40 min
Oxidative Stability (RBOT) ([2]; Refined Meadowfoam Seed Oil plus 0.2% compound): 41 min
Oxidative Stability (RBOT) ([2]; Refined Meadowfoam Seed Oil plus 1.0% compound): 41 min
Oxidative stability in the RBOT test, in words ([2]; addition of 0.1% compound): doubled
OSI Time ([3]; 0.1% additive): 64.2 h
improvement of OSI time compared to jojoba oil alone ([3]; 0.1% additive): 30%
OSI Time ([3]; 1% additive): 168 h
improvement of OSI time compared to jojoba oil alone ([3]; 1% additive): 241%
OSI Time ([4]; refined meadowfoam seed oil Lot #CW-4551, 0.1% additive): 49.8 h
OSI Time ([4]; refined meadowfoam seed oil Lot #CW-4551, 0.5% additive): 159 h
OSI Time ([4]; refined meadowfoam seed oil Lot #CW-4551, 1.0% additive): 172 h
OSI Time ([4]; refined meadowfoam seed oil plus additive 0.1%): 49.8 h
OSI Time ([4]; refined meadowfoam seed oil plus additive 0.5%): 159 h
OSI Time ([4]; refined meadowfoam seed oil plus additive 1.0%): 172 h
increase in the OSI time ([4]; 0.1% additive): 234%
increase in the OSI time ([4]; 0.5% additive): 967%
increase in the OSI time ([4]; 1.0% additive): 1054%
